Where a SMILES comes first, the peptide text is derived from it. [ ]: non-standard residue; d: D form. The star is where a group is joined. NHCH2CH2OH = OCCN*; For = O=C*
How the values were obtained:
[1] = H+/Na+ transport assay of bead-derived peptides (one-point); assay type: biochemical; set-up: key: relative activity; mean of two control wells = 1.00; settings: bead-derived peptide solution, EYPC/EYPG LUVs;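 note: relative to parent gramicidin A activity set to 1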
Summary of the method: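 One-point screen: peptide + pyranine-loaded LUVs, 30 min RT with vortexing, 96-well. Read-out is fluorescence intensity scaled as 100 × (Ix – I0)/(Imax – I0). Imax from Triton X-100, I0 from untreated vesicles, and the mean of the two control wells is set to 1.00.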

[2] = test system: P388 mouse leukemia cells; settings: 92 h
Summary of the method: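 P388 cells at 1 × 10^4 cells/mL (final) were exposed to library peptides (stocks diluted 250-fold in RPMI1640/10% FBS) for 92 h at 37 °C, 5% CO2. Viable cells were counted by WST-1/1-methoxy PMS (4 h), absorbance 415 nm, and expressed as cell viability (%).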

[3] = test system: Streptococcus pyogenes SSI-9; experiment: Antibacterial activity assay of bead-derived peptides (three concentrations); assay type: cell-based; set-up: key: +++: inhibition by the 640-fold diluted peptide solution; ++: inhibition by the 160-fold diluted solution; +: inhibition by the 40-fold diluted solution; -: no inhibition; settings: S. pyogenes, bead-derived peptide solution, three concentrations
Summary of the method: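 Library peptide stock applied undiluted, 4-fold and 16-fold diluted in DMSO to S. pyogenes SSI-9 (2 × 10^5 CFU) in cation-adjusted Mueller Hinton broth with 5% laked horse blood. After 18 h at 37 °C, growth judged by visible cell precipitation.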

SMILES | H+/Na+ transport activity normalized against the value of 1 (1.00) [1] | cell viability/% [2] [%] | antibacterial activity [3]
CC(C)C[C@@H](NC(=O)[C@H](Cc1c[nH]c2ccccc12)NC(=O)[C@H](NC(=O)[C@H](Cc1c[nH]c2ccccc12)NC(=O)[C@@H](CC(C)C)NC(=O)[C@@H](NC(=O)[C@H](NC(=O)[C@H](C)NC(=O)[C@H](NC(=O)[C@H](C)NC(=O)CNC(=O)[C@@H](NC=O)C(C)C)C(C)C)C(C)C)C(C)C)C(C)C)C(=O)N[C@@H](Cc1c[nH]c2ccccc12)C(=O)N[C@@H](C(=O)N[C@@H](Cc1c[nH]c2ccccc12)C(=O)NCCO)C(C)C [compound 2554] (For-VGA[dV]A[dV]V[dL]W[dV]W[dL]W[dV]W-NHCH2CH2OH) | 1.06 | 9.2 | ++
CC(C)C[C@@H](NC(=O)[C@H](Cc1c[nH]c2ccccc12)NC(=O)[C@H](NC(=O)[C@H](Cc1c[nH]c2ccccc12)NC(=O)[C@@H](CC(C)C)NC(=O)[C@H](Cc1c[nH]c2ccccc12)NC(=O)[C@H](NC(=O)[C@@H](NC(=O)[C@H](NC(=O)[C@H](C)NC(=O)[C@H](NC(=O)[C@H](C)NC(=O)CNC(=O)[C@@H](NC=O)C(C)C)[C@H](C)O)C(C)C)C(C)C)C(C)C)C(C)C)C(=O)N[C@@H](Cc1c[nH]c2ccccc12)C(=O)NCCO [compound 11199] (For-VGA[dT]A[dV]V[dV]W[dL]W[dV]W[dL]W-NHCH2CH2OH) | 1.00 | 65.2 | -
CC(C)C[C@@H](NC(=O)[C@H](C)NC(=O)CNC(=O)[C@@H](NC=O)C(C)C)C(=O)N[C@@H](C)C(=O)N[C@H](CC(C)C)C(=O)N[C@H](C(=O)N[C@@H](C(=O)N[C@@H](Cc1c[nH]c2ccccc12)C(=O)N[C@@H](C(=O)N[C@@H](Cc1c[nH]c2ccccc12)C(=O)N[C@@H](C(=O)N[C@@H](Cc1c[nH]c2ccccc12)C(=O)N[C@H](CC(C)C)C(=O)N[C@@H](Cc1c[nH]c2ccccc12)C(=O)NCCO)C(C)C)C(C)C)[C@H](C)O)C(C)C [compound 7548] (For-VGA[dL]A[dL]V[dT]W[dV]W[dV]W[dL]W-NHCH2CH2OH) | 1.08 | 100.0 | -
CC(C)C[C@@H](NC(=O)[C@H](C)NC(=O)CNC(=O)[C@@H](NC=O)C(C)C)C(=O)N[C@@H](C)C(=O)N[C@H](CC(C)C)C(=O)N[C@H](C(=O)N[C@H](CC(C)C)C(=O)N[C@@H](Cc1c[nH]c2ccccc12)C(=O)N[C@@H](C(=O)N[C@@H](Cc1c[nH]c2ccccc12)C(=O)N[C@@H](C(=O)N[C@@H](Cc1c[nH]c2ccccc12)C(=O)N[C@@H](C(=O)N[C@@H](Cc1c[nH]c2ccccc12)C(=O)NCCO)C(C)C)C(C)C)C(C)C)C(C)C [compound 7408] (For-VGA[dL]A[dL]V[dL]W[dV]W[dV]W[dV]W-NHCH2CH2OH) | 1.06 | 19.4 | -
CC(C)C[C@@H](NC(=O)[C@H](C)NC(=O)CNC(=O)[C@@H](NC=O)C(C)C)C(=O)N[C@@H](C)C(=O)N[C@H](CC(C)C)C(=O)N[C@H](C(=O)N[C@@H](C(=O)N[C@@H](Cc1c[nH]c2ccccc12)C(=O)N[C@@H](C(=O)N[C@@H](Cc1c[nH]c2ccccc12)C(=O)N[C@@H](C(=O)N[C@@H](Cc1c[nH]c2ccccc12)C(=O)N[C@@H](C(=O)N[C@@H](Cc1c[nH]c2ccccc12)C(=O)NCCO)C(C)C)[C@H](C)O)C(C)C)C(C)C)C(C)C [compound 2887] (For-VGA[dL]A[dL]V[dV]W[dV]W[dT]W[dV]W-NHCH2CH2OH) | 1.01 | 99.0 | -
CC(C)C[C@@H](NC(=O)[C@H](C)NC(=O)CNC(=O)[C@@H](NC=O)C(C)C)C(=O)N[C@@H](C)C(=O)N[C@@H](C(=O)N[C@H](C(=O)N[C@@H](C(=O)N[C@@H](Cc1c[nH]c2ccccc12)C(=O)N[C@@H](C(=O)N[C@@H](Cc1c[nH]c2ccccc12)C(=O)N[C@H](CC(C)C)C(=O)N[C@@H](Cc1c[nH]c2ccccc12)C(=O)N[C@H](CC(C)C)C(=O)N[C@@H](Cc1c[nH]c2ccccc12)C(=O)NCCO)C(C)C)[C@H](C)O)C(C)C)C(C)C [compound 5482] (For-VGA[dL]A[dV]V[dT]W[dV]W[dL]W[dL]W-NHCH2CH2OH) | 1.25 | 100.0 | -
CC(C)C[C@@H](NC(=O)[C@H](Cc1c[nH]c2ccccc12)NC(=O)[C@H](NC(=O)[C@H](Cc1c[nH]c2ccccc12)NC(=O)[C@@H](CC(C)C)NC(=O)[C@@H](NC(=O)[C@H](NC(=O)[C@H](C)NC(=O)[C@H](NC(=O)[C@H](C)NC(=O)CNC(=O)[C@@H](NC=O)C(C)C)[C@H](C)O)C(C)C)C(C)C)C(C)C)C(=O)N[C@@H](Cc1c[nH]c2ccccc12)C(=O)N[C@@H](C(=O)N[C@@H](Cc1c[nH]c2ccccc12)C(=O)NCCO)C(C)C [compound 6116] (For-VGA[dT]A[dV]V[dL]W[dV]W[dL]W[dV]W-NHCH2CH2OH) | 1.13 | 93.5 | -
CC(C)C[C@@H](NC(=O)[C@H](Cc1c[nH]c2ccccc12)NC(=O)[C@H](NC(=O)[C@H](Cc1c[nH]c2ccccc12)NC(=O)[C@@H](CC(C)C)NC(=O)[C@H](Cc1c[nH]c2ccccc12)NC(=O)[C@@H](CC(C)C)NC(=O)[C@@H](NC(=O)[C@H](NC(=O)[C@H](C)NC(=O)[C@H](NC(=O)[C@H](C)NC(=O)CNC(=O)[C@@H](NC=O)C(C)C)C(C)C)C(C)C)C(C)C)[C@H](C)O)C(=O)N[C@@H](Cc1c[nH]c2ccccc12)C(=O)NCCO [compound 1251] (For-VGA[dV]A[dV]V[dL]W[dL]W[dT]W[dL]W-NHCH2CH2OH) | 1.00 | 52.9 | +
CC(C)C[C@@H](NC(=O)[C@H](C)NC(=O)CNC(=O)[C@@H](NC=O)C(C)C)C(=O)N[C@@H](C)C(=O)N[C@@H](C(=O)N[C@H](C(=O)N[C@H](CC(C)C)C(=O)N[C@@H](Cc1c[nH]c2ccccc12)C(=O)N[C@H](CC(C)C)C(=O)N[C@@H](Cc1c[nH]c2ccccc12)C(=O)N[C@@H](C(=O)N[C@@H](Cc1c[nH]c2ccccc12)C(=O)N[C@H](CC(C)C)C(=O)N[C@@H](Cc1c[nH]c2ccccc12)C(=O)NCCO)[C@H](C)O)C(C)C)C(C)C [compound 11425] (For-VGA[dL]A[dV]V[dL]W[dL]W[dT]W[dL]W-NHCH2CH2OH) | 1.12 | 41.5 | +
CNC(=O)C[C@@H](NC(=O)[C@@H](NC(=O)[C@@H](CC(C)C)NC(=O)[C@H](C)NC(=O)[C@@H](CC(C)C)NC(=O)[C@H](C)NC(=O)CNC(=O)[C@@H](NC=O)C(C)C)C(C)C)C(=O)N[C@@H](Cc1c[nH]c2ccccc12)C(=O)N[C@H](CC(C)C)C(=O)N[C@@H](Cc1c[nH]c2ccccc12)C(=O)N[C@@H](C(=O)N[C@@H](Cc1c[nH]c2ccccc12)C(=O)N[C@H](CC(C)C)C(=O)N[C@@H](Cc1c[nH]c2ccccc12)C(=O)NCCO)C(C)C [compound 8600] (For-VGA[dL]A[dL]V[dD](NHMe)W[dL]W[dV]W[dL]W-NHCH2CH2OH) | 1.20 | 55.3 | -
CC(C)C[C@@H](NC(=O)[C@H](C)NC(=O)CNC(=O)[C@@H](NC=O)C(C)C)C(=O)N[C@@H](C)C(=O)N[C@@H](C(=O)N[C@H](C(=O)N[C@@H](C(=O)N[C@@H](Cc1c[nH]c2ccccc12)C(=O)N[C@@H](C(=O)N[C@@H](Cc1c[nH]c2ccccc12)C(=O)N[C@H](CC(C)C)C(=O)N[C@@H](Cc1c[nH]c2ccccc12)C(=O)N[C@@H](C(=O)N[C@@H](Cc1c[nH]c2ccccc12)C(=O)NCCO)C(C)C)C(C)C)C(C)C)C(C)C)[C@H](C)O [compound 3364] (For-VGA[dL]A[dT]V[dV]W[dV]W[dL]W[dV]W-NHCH2CH2OH) | 1.09 | 100.0 | -
CNC(=O)C[C@@H](NC(=O)[C@@H](NC(=O)[C@@H](CC(C)C)NC(=O)[C@H](C)NC(=O)[C@@H](CC(C)C)NC(=O)[C@H](C)NC(=O)CNC(=O)[C@@H](NC=O)C(C)C)C(C)C)C(=O)N[C@@H](Cc1c[nH]c2ccccc12)C(=O)N[C@H](CC(C)C)C(=O)N[C@@H](Cc1c[nH]c2ccccc12)C(=O)N[C@H](CC(C)C)C(=O)N[C@@H](Cc1c[nH]c2ccccc12)C(=O)N[C@@H](C(=O)N[C@@H](Cc1c[nH]c2ccccc12)C(=O)NCCO)[C@H](C)O [compound 8992] (For-VGA[dL]A[dL]V[dD](NHMe)W[dL]W[dL]W[dT]W-NHCH2CH2OH) | 1.07 | 56.1 | -
CNC(=O)C[C@@H](NC(=O)[C@@H](NC(=O)[C@@H](CC(C)C)NC(=O)[C@H](C)NC(=O)[C@@H](CC(C)C)NC(=O)[C@H](C)NC(=O)CNC(=O)[C@@H](NC=O)C(C)C)C(C)C)C(=O)N[C@@H](Cc1c[nH]c2ccccc12)C(=O)N[C@H](CC(C)C)C(=O)N[C@@H](Cc1c[nH]c2ccccc12)C(=O)N[C@@H](C(=O)N[C@@H](Cc1c[nH]c2ccccc12)C(=O)N[C@H](CC(C)C)C(=O)N[C@@H](Cc1c[nH]c2ccccc12)C(=O)NCCO)C(C)C [compound 1479] (For-VGA[dL]A[dL]V[dD](NHMe)W[dL]W[dV]W[dL]W-NHCH2CH2OH) | 1.19 | 100.0 | -

From publication PMC7531004, “Discovery of gramicidin A analogues with altered activities by multidimensional screening of a one-bead-one-compound library” (Nature Communications, 2020)
